# Where two headings read alike, the source gives them in different places. Residues, ends and D or L forms follow the SMILES beside them.
# Legend:
# In vivo toxicity test = test: In vivo toxicity test; parameters: species or system Swiss mice
# Description: The procedures used in the assays were approved by the local Animal Ethical Committee and conform to international standards of animal welfare (Approval P067/2015 of the Ethical Committee of KU Leuven). […] Briefly, 5-6 week-old Swiss females were divided into […] (6 animals/group) and administered 30 mg/kg of Colpeptin1 (group A) or vehicle (physiological water pH 7.5) (group b) once a day for 18 days via IP injection. During the treatment period the clinical, physiological and behavioral parameters including body weight, food and water consumption, body condition score, home cage activity and locomotion were constantly monitored and recorded.
# Three days after the last administration animals were anesthetized and blood was collected using a standard retro-orbital puncture from each animal. Next, the mice sacrificed and underwent complete necropsy with gross examination and organ weights. The organs (Heart, Liver, Spleen, kidney, bone marrow, Brain, Lung) were sampled and immersion fixed in 4% paraformaldehyde. Formalin-fixed tissues after dehydration were routinely processed and embedded in paraffin blocks for histopathological examination. 5 μm thick sections taken from these blocks (Thermo Scientific Microm HM355S microtome) were then stained with Hematoxylin and Eosin (Leica ST5010 Autostainer XL) and evaluated under a Leica DM 2500 light microscope by a board-certified veterinary pathologist. Hematology examination was performed using an automate high-resolution flow cytometer, Abbott Cell-Dyn 3700.
# HeLa cells = test: In vitro mammalian cytotoxicity (LDH release, CellTiter Blue); format: cell-based, human
# Description: Mammalian cytotoxicity was measured using the LDH release (Roche, Mannheim, Germany) and CellTiter Blue (Promega) methods. Briefly, HeLa cells (obtained from Bart De Strooper lab, tested to be mycoplasma free) were seeded in 96-well round bottom plates at a concentration of 3×10^5 cells/mL in Dulbecco's Modified Eagle's Medium and treated by different concentrations of peptides. Cells treated with 1% Triton™ X-100 and vehicle were considered as positive and negative controls, respectively. Micro-plates were incubated at 37° C., 5% CO2 and 90% humidity for 4 hours. The micro-plate was centrifuged at 1350 rpm for 10 minutes. 100 μL of supernatant was transferred into clear 96-well flat bottom microplates. In order to determine LDH activity in the supernatants, 100 μl reaction mix (catalyst and dye solution) were added to each well and incubated for 30 min at RT in the dark and the LDH reaction was stopped by adding 100 ul of the Stop solution. The absorbances of the samples were measured at 490 nm. The cell viability was calculated using the formula: (exp. value−negative control value)/(positive control value−negative control value)*100. The amount of absorbance is proportional to the number of living cells and corresponds to the cells' metabolic activity.
# E. coli O157 = format: cell-based, Escherichia coli; conditions: E. coli 0157 (Table 2)
# Description: (§1) The MICs of active peptides were determined via the Broth microdilution assay according to the EUCAST guideline, which were performed in 96-well polystyrene flat-bottom microtiter plates (BD Biosciences). Briefly, a single colony was inoculated into 5 mL LB medium and grown to the end-exponential growth phase in a shaking incubator at 37° C. Cultures were subsequently diluted to an OD600 of 0.002 ([…]) in fresh LB medium. 100 μL of LB medium with different concentration of peptides ranging from 100 μg/mL to 1 μg/mL were serially diluted to the sterile 96-well plate (at least 3 wells in each plate). Afterward, 100 μL of the diluted bacteria were pipetted into 96-well plates containing different concentration of peptides. In each plate, the grown bacteria with maximum concentration of carrier and medium were considered as positive and negative controls, respectively. Thereafter, 96-well plates was statically incubated overnight at 37° C. to allow bacterial growth. A multipurpose UV/VIS plate reader at OD590 nm, 1 s shaking measured the absorbance of the growth bacteria using a Perkin Elmer spectrophotometer (1420 Multilabel Counter Victor 3).
# [1] = tested on: E. coli K-12 BW25113 strain (KEIO collection); format: cell-based, Escherichia coli
# Description: as §1
# E coli ATCC 25922 = format: cell-based, Escherichia coli
# Description: Gram negative bacterial strains were cultivated in Luria-Bertani (LB) broth (Difco) and gram positive bacteria strains were grown in a rich medium, brain heart infusion (BHI) broth (Difco, Sparks, MD) at 37° C. Whenever required, growth media were supplemented with appropriate antibiotic to the medium or plates. Escherichia coli DH5α was used for cloning and plasmid amplification. […] Bacterial CFU counting was done on blood agar plates (BD Biosciences). Species identification and antibiograms for all clinical isolates were performed using MALDI-TOF and VITEK® 2 automated system (bioMérieux).
# as §1, with “Afterward, 100 μL of the diluted bacteria were pipetted into 96-well plates containing different concentration of peptides. In each plate, the grown bacteria with maximum concentration of carrier and medium were considered as positive and negative controls, respectively. Thereafter, 96-well plates was statically incubated overnight at 37° C. to allow bacterial growth.” left out
# [2] = mice, 30 mg/kg, 18 consecutive days injection
# [3] = mice, 18 consecutive days of injection, Mean ± SD
compound,measurement,setting,value
CC(C)C[C@H](NC(=O)CNC(=O)[C@H](CCCNC(=N)N)NC(=O)[C@@H]1CCCN1C(=O)[C@H](CCCNC(=N)N)NC(=O)[C@H](CCCNC(=N)N)NC(=O)[C@@H](NC(=O)[C@H](CC(C)C)NC(=O)[C@H](C)NC(=O)[C@H](CC(C)C)NC(=O)CNC(=O)[C@H](CC(C)C)NC(=O)CNC(=O)[C@@H](N)CCCNC(=N)N)C(C)C)C(=O)NCC(=O)N[C@@H](CC(C)C)C(=O)N[C@@H](C)C(=O)N[C@@H](CC(C)C)C(=O)N[C@H](C(=O)N[C@@H](CCCNC(=N)N)C(=O)N[C@@H](CCCNC(=N)N)C(=O)O)C(C)C [Peptide P2] (H-RGLGLALVRRPRGLGLALVRR-OH),adverse effects on repeated dosing,"In vivo toxicity test; 6 mice, daily injections at the maximum tolerated dose for 18 days",without any apparent adverse effects
same,"acute adverse effects, dose escalation","In vivo toxicity test; Swiss mice, intraperitoneal administration of up to 30 mg/kg",no acute adverse effects
same,survey of the major organs,In vivo toxicity test; after 18 days dosing and 3 days recovery,no major morphological signs of toxicity
same,Organs weights: Brain,In vivo toxicity test; [2],0.56 ± 0.02 gr
same,Organs weights: Heart,In vivo toxicity test; [2],0.20 ± 0.02 gr
same,Organs weights: Kidneys,In vivo toxicity test; [2],0.58 ± 0.01 gr
same,Organs weights: Liver,In vivo toxicity test; [2],1.90 ± 0.11 gr
same,Organs weights: Spleen,In vivo toxicity test; [2],0.12 ± 0.01 gr
same,"BASO, Basophil absolute count",In vivo toxicity test; [3],0.24 ± 0.02
same,"EOS, Eosinophil absolute count",In vivo toxicity test; [3],0.14 ± 0.06
same,"HCT, Hematocrit",In vivo toxicity test; [3],98.87 ± 3.7
same,"HGB, Hemoglobin concentration",In vivo toxicity test; [3],17.8 ± 0.45
same,"LYM, Lymphocyte absolute count",In vivo toxicity test; [3],5.32 ± 0.52
same,"MCH, Mean Corpuscular Hemoglobin",In vivo toxicity test; [3],48.2 ± 0.34
same,"MCHC, Mean Corpuscular Hemoglobin Concentration",In vivo toxicity test; [3],53.7 ± 0.42
same,"MCV, Mean Corpuscular Volume",In vivo toxicity test; [3],273 ± 1.32
same,"MONO, Monocyte absolute count",In vivo toxicity test; [3],0.15 ± 0.05
same,"MPV, Mean Platelet Volume",In vivo toxicity test; [3],16.36 ± 0.2
same,"NEU, Neutrophil absolute count",In vivo toxicity test; [3],0.80 ± 0.06
same,"PCT, Plateletcrit",In vivo toxicity test; [3],0.88 ± 0.05
same,"PDW, Platelet Distribution Width",In vivo toxicity test; [3],49.9 ± 0.43
same,"PLT, Platelet or Thrombocyte count",In vivo toxicity test; [3],1595 ± 50.7
same,"RBC, Red Blood Cell or Erythrocyte count",In vivo toxicity test; [3],10.9 ± 0.46
same,"WBC, White Blood Cell or Leukocyte count",In vivo toxicity test; [3],6.89 ± 0.42
same,MTD,"In vivo toxicity test; mouse, in vivo, ip, Swiss mice, intraperitoneal, read-out: safe concentration from escalation experiment",30 mg/kg
same,toxicity towards mammalian cells,HeLa cells,little or no toxicity towards mammalian cells
same,MIC,E. coli O157,6 µg/mL
same,MIC,[1]; KEIO WT,12 µg/mL
same,MIC,[1]; Δ Clp A,12 µg/mL
same,MIC,[1]; Δ Clp B,12 µg/mL
same,MIC,[1]; Δ Clp P,12 µg/mL
same,MIC,[1]; Δ Clp S,12 µg/mL
same,MIC,[1]; Δ Clp X,12 µg/mL
same,MIC,[1]; Δ Dan J,12 µg/mL
same,MIC,[1]; Δ Dan K,6 µg/mL
same,MIC,[1]; Δ gro L,12 µg/mL
same,MIC,[1]; Δ htp G,12 µg/mL
same,MIC,E coli ATCC 25922,12 µg/mL

# Reference: patent US11872262B2, “Means and methods for treating bacterial infections” (VIB VZW, priority 2017, dated 2024)
